Assay results from patent US11034650B2, “Compounds useful for treating a Mannheimia haemolytica or Histophilus somni infection” (Intervet Inc., priority 2016, dated 2021).
Values after ≈ are worked out from the molar mass of the structure shown.

Key:
Assay type in all cases: cell-based
[1] = tested on: Mannheimia haemolytica MH 6357 (M7/2, reference strain, cattle infection strain); assay: MIC, broth-microdilution (CLSI VET01-A4), strain MH 6357; conditions: Mannheimia haemolytica strain MH 6357, broth-microdilution; unit assumed
Method: (§1) For example, representative compounds were tested against ***, Mannheimia haemolytica and Pasteurella multocida, using the conventional broth-dilution assay.
(§2) The Minimum inhibitory concentrations (MIC) of compounds according to the invention for a number of veterinary bacterial pathogens were determined by the broth-microdilution method according to CLSI document VET01-A4.
(§3) Microdilution trays containing a doubling dilution series of the test compound were used for the tests. The MIC results were interpreted according to the CLSI documents VET01-S3. The lowest concentration of compound at which no visible growth (i.e. no turbidity) detected by the unaided eye was recorded as the MIC.

[2] = tested on: Mannheimia haemolytica MH 6374 (ATCC 33396, reference strain); assay: MIC, broth-microdilution (CLSI VET01-A4), strain MH 6374; conditions: Mannheimia haemolytica strain MH 6374, broth-microdilution; unit assumed
Method: as §1, §2, §3

[3] = tested on: Pasteurella multocida PM 12080 (IV102277-0093, BRD field isolate); assay: MIC, broth-microdilution (CLSI VET01-A4), strain PM 12080; conditions: Pasteurella multocida strain PM 12080, broth-microdilution; unit assumed
Method: as §1, §2, §3

[4] = tested on: Pasteurella multocida PM 6391 (ATCC 43137, reference strain); assay: MIC, broth-microdilution (CLSI VET01-A4), strain PM 6391; conditions: Pasteurella multocida strain PM 6391, broth-microdilution; unit assumed
Method: as §1, §2, §3

[5] = tested on: Mannheimia haemolytica MH 10720 (154, BRD field isolate); assay: MIC, broth-microdilution (CLSI VET01-A4), strain MH 10720; conditions: Mannheimia haemolytica strain MH 10720, broth-microdilution; unit assumed
Method: as §1, §2, §3

[6] = tested on: Mannheimia haemolytica MH 13093 (XB0472-6014.1, BRD field isolate); assay: MIC, broth-microdilution (CLSI VET01-A4), strain MH 13093; conditions: Mannheimia haemolytica strain MH 13093, broth-microdilution; unit assumed
Method: as §1, §2, §3

[7] = tested on: Mannheimia haemolytica MH 12587 (1071, BRD field isolate, macrolide-resistance: erm+, E+); assay: MIC, broth-microdilution (CLSI VET01-A4), strain MH 12587; conditions: Mannheimia haemolytica strain MH 12587, broth-microdilution; unit assumed
Method: as §1, §2, §3

[8] = tested on: Pasteurella multocida PM 6267 (P 2225 (L386), reference strain, mouse infection strain); assay: MIC, broth-microdilution (CLSI VET01-A4), strain PM 6267; conditions: Pasteurella multocida strain PM 6267, broth-microdilution; unit assumed
Method: as §1, §2, §3

[9] = tested on: Mannheimia haemolytica MH 13065 (XB0446-6003.9, BRD field isolate); assay: MIC, broth-microdilution (CLSI VET01-A4), strain MH 13065; conditions: Mannheimia haemolytica strain MH 13065, broth-microdilution; unit assumed
Method: as §1, §2, §3

[10] = tested on: Pasteurella multocida PM 10775 (080130003051, BRD field isolate); assay: MIC, broth-microdilution (CLSI VET01-A4), strain PM 10775; conditions: Pasteurella multocida strain PM 10775, broth-microdilution; unit assumed
Method: as §1, §2, §3

| Compound | MIC MH 6357 [1] [µg/mL] | MIC MH 6374 [2] [µg/mL] | MIC PM 12080 [3] [µg/mL] | MIC PM 6391 [4] [µg/mL] | MIC MH 10720 [5] [µg/mL] | MIC MH 13093 [6] [µg/mL] | MIC MH 12587 [7] [µg/mL] | MIC PM 6267 [8] [µg/mL] | MIC MH 13065 [9] [µg/mL] | MIC PM 10775 [10] [µg/mL] |
| --- | --- | --- | --- | --- | --- | --- | --- | --- | --- | --- |
| CC(C)(O)[C@H](NC(=O)c1ccc(C#Cc2ccc(CN3CCCC3)cc2)cc1)C(=O)NO [Compound 225] | 12.5 (≈ 28.7 µM) | 6.3 (≈ 14.5 µM) | 0.8 (≈ 1.84 µM) | 0.8 (≈ 1.84 µM) | 1.6 (≈ 3.67 µM) | 12.5 (≈ 28.7 µM) | 12.5 (≈ 28.7 µM) | ≤ 0.1 | 12.5 (≈ 28.7 µM) | – |
| CC[C@H](C)[C@H](NC(=O)c1ccc(C#Cc2ccc(CN(C)Cc3ccccc3)cc2)cc1)C(=O)NO [Compound 127] | 3.1 (≈ 6.41 µM) | 6.3 (≈ 13 µM) | 1.6 (≈ 3.31 µM) | – | 1.6 (≈ 3.31 µM) | 12.5 (≈ 25.8 µM) | 25 (≈ 51.7 µM) | 1.6 (≈ 3.31 µM) | 6.3 (≈ 13 µM) | 0.4 (≈ 0.827 µM) |
| CC(C)[C@H](NC(=O)c1ccc(C#Cc2ccc(CNCC#N)cc2)cc1)C(=O)NO [Compound 204] | 0.4 (≈ 0.989 µM) | 0.4 (≈ 0.989 µM) | ≤ 0.1 | – | ≤ 0.1 | 0.4 (≈ 0.989 µM) | 0.8 (≈ 1.98 µM) | ≤ 0.1 | 0.2 (≈ 0.494 µM) | ≤ 0.1 |
| O=C(N[C@@H](CO)C(=O)NO)c1ccc(C#Cc2ccc(CN3CCS(=O)(=O)CC3)cc2)cc1 [Compound 78] | 6.3 (≈ 13.4 µM) | 6.3 (≈ 13.4 µM) | 0.8 (≈ 1.7 µM) | – | 3.1 (≈ 6.57 µM) | 6.3 (≈ 13.4 µM) | 12.5 (≈ 26.5 µM) | ≤ 0.1 | 6.3 (≈ 13.4 µM) | ≤ 0.1 |
| C=CCNCc1cccc(C#Cc2ccc(C(=O)N[C@H](C(=O)NO)C(C)C)cc2)c1 [Compound 26] | 12.5 (≈ 30.8 µM) | 6.3 (≈ 15.5 µM) | 6.3 (≈ 15.5 µM) | – | 3.1 (≈ 7.64 µM) | 12.5 (≈ 30.8 µM) | 25 (≈ 61.7 µM) | 3.1 (≈ 7.64 µM) | 12.5 (≈ 30.8 µM) | 0.8 (≈ 1.97 µM) |
| CC[C@H](C)[C@H](NC(=O)c1ccc(C#Cc2ccc(CN(CC)CC)cc2)cc1)C(=O)NO [Compound 118] | 6.3 (≈ 14.5 µM) | 12.5 (≈ 28.7 µM) | 1.6 (≈ 3.67 µM) | – | 3.1 (≈ 7.12 µM) | 12.5 (≈ 28.7 µM) | 25 (≈ 57.4 µM) | 0.4 (≈ 0.918 µM) | 12.5 (≈ 28.7 µM) | 0.2 (≈ 0.459 µM) |
| CC[C@H](C)[C@H](NC(=O)c1ccc(C#Cc2ccc(CNCCOC)cc2)cc1)C(=O)NO [Compound 115] | 6.3 (≈ 14.4 µM) | 1.6 (≈ 3.66 µM) | 1.6 (≈ 3.66 µM) | – | 0.8 (≈ 1.83 µM) | 3.1 (≈ 7.09 µM) | 6.3 (≈ 14.4 µM) | 0.4 (≈ 0.914 µM) | 3.1 (≈ 7.09 µM) | ≤ 0.1 |
| CC(C)[C@H](NC(=O)c1ccc(C#Cc2ccc(CN3CCN(c4ccccc4)CC3)cc2)cc1)C(=O)NO [Compound 135] | 3.1 (≈ 6.07 µM) | 6.3 (≈ 12.3 µM) | 0.8 (≈ 1.57 µM) | – | 0.8 (≈ 1.57 µM) | 25 (≈ 49 µM) | 1 (≈ 1.96 µM) | 0.8 (≈ 1.57 µM) | 25 (≈ 49 µM) | ≤ 0.1 |
| CC(C)[C@H](NC(=O)c1ccc(C#Cc2ccc(CN3CCOCC3)cc2)cc1)C(=O)NO [Compound 98] | 0.8 (≈ 1.84 µM) | 1.6 (≈ 3.67 µM) | ≤ 0.1 | – | 0.4 (≈ 0.918 µM) | 1.6 (≈ 3.67 µM) | 1.6 (≈ 3.67 µM) | ≤ 0.1 | 1.6 (≈ 3.67 µM) | ≤ 0.1 |
| CC[C@H](C)[C@H](NC(=O)c1ccc(C#Cc2ccc(CN3CCc4ccccc4C3)cc2)cc1)C(=O)NO [Compound 124] | 6.3 (≈ 12.7 µM) | 12.5 (≈ 25.2 µM) | 3.1 (≈ 6.25 µM) | – | 3.1 (≈ 6.25 µM) | 12.5 (≈ 25.2 µM) | 25 (≈ 50.4 µM) | 3.1 (≈ 6.25 µM) | 12.5 (≈ 25.2 µM) | 0.8 (≈ 1.61 µM) |
| CC(C)[C@H](NC(=O)c1ccc(C#Cc2cccc(CN3CCOCC3)c2)cc1)C(=O)NO [Compound 32] | 6.3 (≈ 14.5 µM) | 6.3 (≈ 14.5 µM) | 3.1 (≈ 7.12 µM) | – | 3.1 (≈ 7.12 µM) | 6.3 (≈ 14.5 µM) | 12.5 (≈ 28.7 µM) | 1.6 (≈ 3.67 µM) | 6.3 (≈ 14.5 µM) | 0.4 (≈ 0.918 µM) |
